Reference: patent US11505798B2, “Methods and compositions for treating inflammatory diseases” (The Regents of the University of California, priority 2019, dated 2022)

Tested on: GAPLINC
Assay: qPCR of GAPLINC in MDMs pretreated with NF-κB inhibitor, then LPS stimulation
Assay type: cell-based, human
Settings: MDMs pretreated with 10 uM, LPS 200 ng/ml for 6 h, vs DMSO
Text: FIGS. 14A-14I show monocytes isolated from human PBMCs and differentiated into macrophages were transfected with control or GAPLINC siRNA. […] Data from RNA-seq performed in biological duplicates. FIG. 14C: GAPLINC isoforms in MDMs as determined by Nanopore-based R2C2 sequencing. Data from Nanopore-sequencing performed in biological duplicates. FIG. 14D: Table representing read counts and percent of each GAPLINC isoform. FIG. 14E: Bi-directional vector expressing GFP-Zeocin on one side and GAPLINC on the other side. FIGS. 14F and 14G: qPCR analysis of GAPLINC expression in THP-1 cells expressing ectopic GAPLINC or empty-vector control. Levels of IL6 were quantified following stimulation with LPS (200 ng/ml) for 6 h; data pooled from three independent experiments. *p<0.05. FIG. 14H: qPCR analysis of GAPLINC in MDMs (n=3) pretreated with DMSO or BAY-7082 (10 uM), followed by LPS stimulation (200 ng/ml) for 6 h; data pooled from three independent experiments. *p<0.05. FIG. 14I: ATAC-seq analysis of monocytes and macrophages, untreated and treated with LPS (200 ng/ml) for 1 h, 6 h and 18 h.
Next, we examined GAPLINC levels in primary MDMs in response to inflammation. […] Induction of positive control inflammatory genes TNFα, IL6, and CCL5 was confirmed (FIGS. 16B-16D). […]

Cc1ccc(S(=O)(=O)/C=C/C#N)cc1 [BAY11-7082]
downregulation of GAPLINC upon LPS stimulation: impaired relative to control
